Experimental data from PubChem BioAssay (NCI).
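Where inhibition never reached the appropriate level, the endpoint shown equals the highest concentration tested. Otherwise, values were interpolated linearly from a five-concentration, 48-hour dose response in 96-well plates. TGI is the concentration that stops growth completely.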

Assays:
Assay in all cases: growth of human tumour cells (NCI), 48 h
[1] = test system: SF-295 CNS
[2] = test system: CCRF-CEM leukemia
[3] = test system: SK-MEL-2 melanoma
[4] = test system: ACHN renal
[5] = test system: DMS 114 small cell lung
[6] = test system: NCI-H522 lung
[7] = test system: UO-31 renal
[8] = test system: BT-549 breast
[9] = test system: SR leukemia
[10] = test system: NCI-H23 lung
[11] = test system: IGROV1 ovarian
[12] = test system: MALME-3M melanoma
[13] = test system: MDA-N
[14] = test system: RXF 393 renal
[15] = test system: OVCAR-4 ovarian
[16] = test system: A549 NSCLC
[17] = test system: A498 renal
[18] = test system: SF-268 CNS
[19] = test system: DMS 273 small cell lung
[20] = test system: OVCAR-3 ovarian
[21] = test system: RXF-631 renal
[22] = test system: M19-MEL melanoma
[23] = test system: LXFL 529 NSCLC
[24] = test system: TK-10 renal
[25] = test system: KM12 colon
[26] = test system: HCC-2998 colon
[27] = test system: 786-0 renal
[28] = test system: SK-MEL-28 melanoma
[29] = test system: COLO 205 colon
[30] = test system: LOX IMVI melanoma
[31] = test system: U251 CNS
[32] = test system: HOP-62 NSCLC
[33] = test system: UACC-62 melanoma
[34] = test system: PC-3 prostate
[35] = test system: SNB-75 CNS
[36] = test system: NCI-H226 lung
[37] = test system: RPMI-8226 leukemia
[38] = test system: M14 melanoma
[39] = test system: HOP-92 NSCLC
[40] = test system: MOLT-4 leukemia
[41] = test system: T-47D breast
[42] = test system: HT29 colon
[43] = test system: SN12C renal
[44] = test system: MDA-MB-435
[45] = test system: SW-620 colon
[46] = test system: OVCAR-5 ovarian
[47] = test system: SK-MEL-5 melanoma
[48] = test system: SNB-19 CNS
[49] = test system: HS 578T breast
[50] = test system: CAKI-1 renal
[51] = test system: DU-145 prostate
[52] = test system: SF-539 CNS
[53] = test system: SK-OV-3 ovarian
[54] = test system: MCF7 breast
[55] = test system: HL-60(TB) leukemia
[56] = test system: DLD-1 colon
[57] = test system: NCI-H460 lung
[58] = test system: HCT-116 colon
[59] = test system: HOP-18 NSCLC
[60] = test system: KM20L2 colon
[61] = test system: UACC-257 melanoma
[62] = test system: K-562 leukemia
[63] = test system: MDA-MB-231 breast

## C[C@H]1CCC2C(OC(=O)[C@@H]2CN(C)C)[C@]2(C)C(=O)C=CC12O (stereo partly drawn)
[1]
  TGI: 31.1 µM
[2]
  TGI: 9.22 µM
[3]
  TGI: > 54.4 µM
[4]
  TGI: 5.74 µM
[5]
  TGI: 11.6 µM
[6]
  TGI: 3.13 µM
[7]
  TGI: 30.8 µM
[8]
  TGI: 25.2 µM
[9]
  TGI: 11.2 µM
[10]
  TGI: 13.6 µM
[11]
  TGI: 42.5 µM
[12]
  TGI: 16.7 µM
[13]
  TGI: 13.3 µM
[14]
  TGI: 4.72 µM
[15]
  TGI: 33.4 µM
[16]
  TGI: 72.8 µM
[17]
  TGI: 31.2 µM
[18]
  TGI: 28.6 µM
[19]
  TGI: 18.8 µM
[20]
  TGI: 15 µM
[21]
  TGI: 3.11 µM
[22]
  TGI: 20.3 µM
[23]
  TGI: 12.4 µM
[24]
  TGI: 18.4 µM
[25]
  TGI: 15.1 µM
[26]
  TGI: 18.2 µM
[27]
  TGI: 11.2 µM
[28]
  TGI: 8.35 µM
[29]
  TGI: 17.9 µM
[30]
  TGI: 17.8 µM
[31]
  TGI: 38.8 µM
[32]
  TGI: 45.6 µM
[33]
  TGI: 9.32 µM
[34]
  TGI: 44.9 µM
[35]
  TGI: 27.1 µM
[36]
  TGI: > 38.1 µM
[37]
  TGI: 16.2 µM
[38]
  TGI: 14.8 µM
[39]
  TGI: 8.03 µM
[40]
  TGI: 20.2 µM
[41]
  TGI: 13.2 µM
[42]
  TGI: 16 µM
[43]
  TGI: 14.6 µM
[44]
  TGI: 22.4 µM
[45]
  TGI: 10.2 µM
[46]
  TGI: 34.1 µM
[47]
  TGI: 20.3 µM
[48]
  TGI: > 57.5 µM
[49]
  TGI: > 100 µM
[50]
  TGI: 24.2 µM
[51]
  TGI: 23.2 µM
[52]
  TGI: 12 µM
[53]
  TGI: 38.6 µM
[54]
  TGI: 24.5 µM
[55]
  TGI: 7.18 µM
[56]
  TGI: 11 µM
[57]
  TGI: 28.7 µM
[58]
  TGI: 12.5 µM
[59]
  TGI: 38.9 µM
[60]
  TGI: 17.7 µM
[61]
  TGI: 23.6 µM
[62]
  TGI: > 55 µM
[63]
  TGI: 25.4 µM
